Data as given in patent US11168093B2, “Thienopyridine inhibitors of RIPK2” (Celgene Corporation, priority 2018, dated 2021).

Each compound was assayed against RIPK2 enzyme (Homo sapiens (Human), UniProt O43353) (assay: RIPK2 inhibition assay, TR-FRET LanthaScreen Tracer 199 screening assay). Settings: 5 nM RIPK2 enzyme, Tracer 199 at 50 nM, Eu-anti-His Antibody at 2 nM, 1 hour incubation.
Type: binding
Procedure: All data was collected using a standard TR-FRET screening assay: LanthaScreen Tracer 199 at 50 nM, Eu-anti-His Antibody at 2 nM, 5 nM RIPK2 enzyme, and 1× Kinase Reaction Buffer. There was a 1 hour incubation prior to read. TR-FRET signal of the interaction (340Ex/665Em/615Em) was read at room temperature with standard setting. Background was subtracted of wells containing no enzyme. Percent inhibition was based on uninhibited controls log (inhibitor) vs. response. Variable slope equation was used with no constraints: Log Y=Bottom+(Top−Bottom)/(1+10^((Log IC50−X)*Hill Slope)).
The compound numbers correspond to the compound numbers above.

Sequence of RIPK2 enzyme (O43353 whole entry): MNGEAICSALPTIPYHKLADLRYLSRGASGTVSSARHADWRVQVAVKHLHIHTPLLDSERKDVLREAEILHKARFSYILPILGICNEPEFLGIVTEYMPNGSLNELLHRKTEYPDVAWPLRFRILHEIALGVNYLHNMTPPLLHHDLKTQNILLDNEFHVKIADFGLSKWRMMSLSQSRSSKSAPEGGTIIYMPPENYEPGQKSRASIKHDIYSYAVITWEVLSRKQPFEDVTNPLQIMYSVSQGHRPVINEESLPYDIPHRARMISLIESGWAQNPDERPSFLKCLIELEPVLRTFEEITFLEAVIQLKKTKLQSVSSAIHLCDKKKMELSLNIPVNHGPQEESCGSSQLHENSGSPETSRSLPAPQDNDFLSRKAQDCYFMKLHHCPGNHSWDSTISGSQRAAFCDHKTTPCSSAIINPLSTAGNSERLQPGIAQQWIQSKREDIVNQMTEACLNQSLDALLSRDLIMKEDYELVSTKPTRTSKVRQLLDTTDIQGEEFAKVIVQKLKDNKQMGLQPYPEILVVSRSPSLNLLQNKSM

Structure (SMILES)	IC50 [nM]
c1cc(Nc2ccc3scnc3c2)c2cc(C3CCNC34CCOC4)sc2n1 (stereo not shown) [Example 42, N-(2-(7-oxa-1-azaspiro[4.4]nonan-4-yl)thieno[2,3-b]pyridin-4-yl)benzo[d]thiazol-5-amine]	10 to 20
CCN1CCC(c2cc3c(Nc4cc5ncsc5cc4F)ccnc3s2)C1C (stereo not shown) [Example 76, N-(2-(1-ethyl-2-methylpyrrolidin-3-yl)thieno[2,3-b]pyridin-4-yl)-6-fluorobenzo[d]thiazol-5-amine]	10 to 20
CCN1CCC(c2cc3c(Nc4c(F)cc5scnc5c4F)ccnc3s2)C12CCOC2 (stereo not shown) [Example 101, N-(2-(1-ethyl-7-oxa-1-azaspiro[4.4]nonan-4-yl)thieno[2,3-b]pyridin-4-yl)-4,6-difluorobenzo[d]thiazol-5-amine]	20 to 50
CCN1CCC(c2cc3c(Nc4ccc5scnc5c4)ccnc3s2)C12CCOC2 (stereo not shown) [Example 45, N-(2-(1-ethyl-7-oxa-1-azaspiro[4.4]nonan-4-yl)thieno[2,3-b]pyridin-4-yl)benzo[d]thiazol-5-amine]	10 to 20
CC1C(c2cc3c(Nc4ccc5scnc5c4)ccnc3s2)CCCN1CC(F)F (stereo not shown) [Example 15, N-(2-(1-(2,2-difluoroethyl)-2-methylpiperidin-3-yl)thieno[2,3-b]pyridin-4-yl)benzo[d]thiazol-5-amine]	20 to 50
C[C@H]1[C@@H](c2cc3c(Nc4ccc5scnc5c4)ccnc3s2)CCCN1C [Example 4d, N-(2-(1,2-dimethylpiperidin-3-yl)thieno[2,3-b]pyridin-4-yl)benzo[d]thiazol-5-amine]	≤ 10
CC1NCCC1c1cc2c(Nc3ccc4scnc4c3)ccnc2s1 (stereo not shown) [Example 26, N-(2-(2-methylpyrrolidin-3-yl)thieno[2,3-b]pyridin-4-yl)benzo[d]thiazol-5-amine]	≤ 10
CC1C(c2cc3c(Nc4ccc5scnc5c4)ccnc3s2)=CCN1C (stereo not shown) [Example 27, N-(2-(1,2-dimethyl-2,5-dihydro-1H-pyrrol-3-yl)thieno[2,3-b]pyridin-4-yl)benzo[d]thiazol-5-amine]	≤ 10
Fc1cc2scnc2c(F)c1Nc1ccnc2sc(C3CCNC34CCOC4)cc12 (stereo not shown) [Example 99, N-(2-(7-oxa-1-azaspiro[4.4]nonan-4-yl)thieno[2,3-b]pyridin-4-yl)-4,6-difluorobenzo[d]thiazol-5-amine]	10 to 20
CC1C(c2cc3c(Nc4ccc5scnc5c4)ccnc3s2)CCN1C (stereo not shown) [Example 28, N-(2-(1,2-dimethylpyrrolidin-3-yl)thieno[2,3-b]pyridin-4-yl)benzo[d]thiazol-5-amine]	≤ 10
CCN1CCC(c2cc3c(Nc4ccc5scnc5c4)ccnc3s2)C1C (stereo not shown) [Example 30, N-(2-(1-ethyl-2-methylpyrrolidin-3-yl)thieno[2,3-b]pyridin-4-yl)benzo[d]thiazol-5-amine]	≤ 10
COCC(=O)N1CCC=C(c2cc3c(Nc4ccc5scnc5c4)ccnc3s2)C1C (stereo not shown) [Example 11, 1-(5-(4-(benzo[d]thiazol-5-ylamino)thieno[2,3-b]pyridin-2-yl)-6-methyl-3,6-dihydro-pyridin-1(2H)-yl)-2-methoxyethan-1-one]	≤ 10
CC1C(c2cc3c(Nc4ccc5scnc5c4)ccnc3s2)CCN1CCO (stereo not shown) [Example 31, 2-(3-(4-(benzo[d]thiazol-5-ylamino)thieno[2,3-b]pyridin-2-yl)-2-methylpyrrolidin-1-yl)ethan-1-ol]	≤ 10
CCN1CCC=C(c2cc3c(Nc4ccc5scnc5c4)ccnc3s2)C1C (stereo not shown) [Example 5, N-(2-(1-ethyl-2-methyl-1,2,5,6-tetrahydropyridin-3-yl)thieno[2,3-b]pyridin-4-yl)benzo[d]thiazol-5-amine]	≤ 10
CC1NCCCC1c1cc2c(Nc3ccc4scnc4c3)c(F)cnc2s1 (stereo not shown) [Example 119, N-(5-fluoro-2-(2-methylpiperidin-3-yl)thieno[2,3-b]pyridin-4-yl)benzo[d]thiazol-5-amine]	20 to 50
Fc1cc2scnc2cc1Nc1ccnc2sc(C3CCNC34CCOC4)cc12 (stereo not shown) [Example 81, N-(2-(7-oxa-1-azaspiro[4.4]nonan-4-yl)thieno[2,3-b]pyridin-4-yl)-6-fluorobenzo[d]thiazol-5-amine]	≥ 50
CCC1C(c2cc3c(Nc4ccc5scnc5c4)ccnc3s2)CCCN1CC (stereo not shown) [Example 24, N-(2-(1,2-diethylpiperidin-3-yl)thieno[2,3-b]pyridin-4-yl)benzo[d]thiazol-5-amine]	10 to 20
CC1NCCC1c1cc2c(Nc3ccc4scnc4c3F)ccnc2s1 (stereo not shown) [Example 87, 4-fluoro-N-(2-(2-methylpyrrolidin-3-yl)thieno[2,3-b]pyridin-4-yl)benzo[d]thiazol-5-amine]	≤ 10
C[C@H]1[C@H](c2cc3c(Nc4ccc5scnc5c4F)ccnc3s2)CCCN1C [Example 59, N-(2-((2S,3R)-1,2-dimethylpiperidin-3-yl)thieno[2,3-b]pyridin-4-yl)-4-fluorobenzo[d]thiazol-5-amine]	≤ 10
C[C@@H]1C(c2cc3c(Nc4c(F)cc5scnc5c4F)ccnc3s2)=CCCN1C [Example 69, (R)—N-(2-(1,2-dimethyl-1,2,5,6-tetrahydropyridin-3-yl)thieno[2,3-b]pyridin-4-yl)-4,6-difluorobenzo[d]thiazol-5-amine]	≤ 10
CC1C(c2cc3c(Nc4cc5ncsc5cc4F)ccnc3s2)CCN1CCO (stereo not shown) [Example 77, 2-(3-(4-((6-fluorobenzo[d]thiazol-5-yl)amino)thieno[2,3-b]pyridin-2-yl)-2-methylpyrrolidin-1-yl)ethan-1-ol]	10 to 20

The next lines start with the values.

IC50 [nM]	Structure (SMILES)
≤ 10	C[C@@H]1NCCC=C1c1cc2c(Nc3c(F)cc4scnc4c3F)ccnc2s1 [Example 66b, (S)-4,6-difluoro-N-(2-(2-methyl-1,2,5,6-tetrahydropyridin-3-yl)thieno[2,3-b]pyridin-4-yl)-benzo[d]thiazol-5-amine]
≤ 10	C[C@H]1[C@@H](c2cc3c(Nc4c(F)cc5scnc5c4F)ccnc3s2)CCCN1C [Example 71b, N-(2-((2S,3S)-1,2-dimethylpiperidin-3-yl)thieno[2,3-b]pyridin-4-yl)-4,6-difluorobenzo[d]thiazol-5-amine]
10 to 20	CCN1CCC=C(c2cc3c(Nc4cc5ncsc5cc4F)ccnc3s2)[C@@H]1C [Example 52b, N-(2-(1-ethyl-2-methyl-1,2,5,6-tetrahydropyridin-3-yl)thieno[2,3-b]pyridin-4-yl)-6-fluorobenzo[d]thiazol-5-amine]
≤ 10	C[C@H]1NCCC[C@H]1c1cc2c(Nc3cc4ncsc4cc3F)ccnc2s1 [Example 50b, 6-fluoro-N-(2-((2R)-2-methylpiperidin-3-yl)thieno[2,3-b]pyridin-4-yl)benzo[d]thiazol-5-amine]
10 to 20	CC1C(c2cc3c(Nc4ccc5scnc5c4F)c(F)cnc3s2)CCCN1C (single isomer, unassigned) [Example 125b, N-(2-(1,2-dimethylpiperidin-3-yl)-5-fluorothieno[2,3-b]pyridin-4-yl)-4-fluorobenzo[d]thiazol-5-amine]
≤ 10	C[C@H]1NCCC[C@@H]1c1cc2c(Nc3c(F)cc4scnc4c3F)ccnc2s1 [Example 67a, 4,6-difluoro-N-(2-((2R,3S)-2-methylpiperidin-3-yl)thieno[2,3-b]pyridin-4-yl)benzo[d]thiazol-5-amine]
≤ 10	CC1NCCCCC1c1cc2c(Nc3ccc4scnc4c3)ccnc2s1 (stereo not shown) [Example 115a, N-(2-(2-methylazepan-3-yl)thieno[2,3-b]pyridin-4-yl)benzo[d]thiazol-5-amine]
